We go through 21 compounds from publication PMC2248166, “Quantitative peptide binding motifs for 19 human and mouse MHC class I molecules derived using positional scanning combinatorial peptide libraries” (Immunome Research, 2008).

A word on the IC50: it is the concentration at which inhibition is half-maximal. A high value points to weaker potency.

Where a SMILES comes first, the peptide text is derived from it.

The target in one assay is HLA A*3001 (Homo sapiens, UniProt P04439, D140H/D185E/E176W/F33S/G80R/H175R/K168Q/R138E/R41S). The assay can be described thus: biochemical. Format: binding.
Sequence of HLA A*3001 (P04439 25-365 limits assumed, stated change not applied): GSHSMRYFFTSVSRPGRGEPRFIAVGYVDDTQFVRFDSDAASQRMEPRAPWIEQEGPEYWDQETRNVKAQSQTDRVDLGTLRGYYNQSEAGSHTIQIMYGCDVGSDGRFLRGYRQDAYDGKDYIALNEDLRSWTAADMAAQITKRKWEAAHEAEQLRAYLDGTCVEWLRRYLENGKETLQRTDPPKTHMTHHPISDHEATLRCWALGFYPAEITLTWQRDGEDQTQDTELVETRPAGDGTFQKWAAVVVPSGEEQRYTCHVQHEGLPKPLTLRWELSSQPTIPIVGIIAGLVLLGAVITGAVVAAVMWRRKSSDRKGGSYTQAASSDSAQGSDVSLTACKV
A further assay deals with HLA B*1503 (Homo sapiens, UniProt P01889, A329T/A93T/A95T/C349S/D201E/D98Y/E187L/E204Q/K202T/N87E/Q94N/R155S/R180L/S121R/S35A/V306I/V36M/Y140S/Y91S). The experiment in a line: biochemical. It is filed as binding.

`CC[C@H](C)[C@H](N)C(=O)N[C@H](C(=O)N[C@@H](CCCCN)C(=O)N[C@H](C(=O)N[C@@H](CC(N)=O)C(=O)N[C@H](C(=O)N[C@@H](Cc1c[nH]cn1)C(=O)N[C@@H](CC(C)C)C(=O)N[C@@H](C)C(=O)O)[C@@H](C)O)[C@@H](C)CC)[C@@H](C)O` [3102.0001] (H-ITKINTHLA-OH) came in with an IC50 at HLA A*3001 of 15 nM. The same measure, in the same setting: under `CC[C@H](C)[C@H](N)C(=O)N[C@H](C(=O)N[C@@H](CCCCN)C(=O)N[C@@H](CO)C(=O)N1CCC[C@H]1C(=O)N[C@@H](Cc1ccc(O)cc1)C(=O)N[C@@H](CCSC)C(=O)N[C@@H](Cc1ccccc1)C(=O)N[C@@H](C)C(=O)O)[C@@H](C)CC` [3102.0003] (H-IIKSPYMFA-OH) stands 6.4 nM; under `CC[C@H](C)[C@H](NC(=O)[C@H](CC(C)C)NC(=O)[C@@H](NC(=O)[C@@H](NC(=O)[C@H](CCCNC(=N)N)NC(=O)[C@H](Cc1ccccc1)NC(=O)[C@@H](N)CCCNC(=N)N)[C@@H](C)O)C(C)C)C(=O)N[C@@H](CO)C(=O)N[C@@H](CCCCN)C(=O)O` [3102.0004] (H-RFRTVLISK-OH), 4.6 nM; under `CC(C)C[C@H](NC(=O)[C@H](CC(N)=O)NC(=O)[C@H](CC(C)C)NC(=O)[C@H](CCCNC(=N)N)NC(=O)[C@H](CCCNC(=N)N)NC(=O)[C@H](CO)NC(=O)[C@H](CCCCN)NC(=O)[C@H](CO)NC(=O)[C@@H](N)CCCCN)C(=O)O` [3102.0008] (H-KSKSRRLNL-OH), 13 nM. On the same count and under the same terms, as for `CC(C)C[C@H](NC(=O)[C@H](CC(N)=O)NC(=O)[C@H](CC(C)C)NC(=O)[C@H](CCCNC(=N)N)NC(=O)[C@H](CCCNC(=N)N)NC(=O)[C@H](CO)NC(=O)[C@@H](N)CCCCN)C(=O)N[C@@H](Cc1ccccc1)C(=O)N[C@@H](CO)C(=O)O` [3102.0009] (H-KSRRLNLFS-OH), the figure is 3.3 nM; as for `CC[C@H](C)[C@H](NC(=O)[C@H](CCSC)NC(=O)[C@H](CCCCN)NC(=O)[C@@H](NC(=O)[C@@H](N)CC(C)C)C(C)C)C(=O)N[C@@H](CC(N)=O)C(=O)N[C@@H](Cc1c[nH]cn1)C(=O)N[C@@H](CC(C)C)C(=O)N[C@@H](CCCCN)C(=O)O` [3102.0010] (H-LVKMINHLK-OH), 42 nM; as for `CSCC[C@H](N)C(=O)N[C@H](C(=O)N[C@@H](CCCNC(=N)N)C(=O)N[C@@H](CC(C)C)C(=O)N[C@H](C(=O)N[C@H](C(=O)N[C@@H](CCC(N)=O)C(=O)NCC(=O)N[C@@H](CC(C)C)C(=O)O)[C@@H](C)O)[C@@H](C)O)C(C)C` [3102.0012] (H-MVRLTTQGL-OH), 8.3 nM.

`CC[C@H](C)[C@H](NC(=O)[C@@H](N)CCCCN)C(=O)N[C@@H](CCCCN)C(=O)N[C@@H](CO)C(=O)N1CCC[C@H]1C(=O)N[C@H](C(=O)N[C@@H](Cc1ccc(O)cc1)C(=O)N[C@@H](Cc1ccc(O)cc1)C(=O)N[C@@H](CCCCN)C(=O)O)[C@@H](C)CC` [3102.0014] (H-KIKSPIYYK-OH): the IC50 on HLA A*3001 worked out at 0.93 nM. This IC50 lies about 8.9-fold lower than the previous one.

In turn, `CC(C)[C@H](NC(=O)[C@@H](N)CCCCN)C(=O)N[C@@H](Cc1ccccc1)C(=O)N[C@H](C(=O)N1CCC[C@H]1C(=O)N[C@@H](C)C(=O)N1CCC[C@H]1C(=O)N[C@@H](Cc1ccccc1)C(=O)NCC(=O)O)C(C)C` [3102.0015] (H-KVFVPAPFG-OH) showed an IC50 against HLA A*3001 of 6.6 nM. As to `CC[C@H](C)[C@H](NC(=O)[C@H](CCCCN)NC(=O)[C@@H](NC(=O)[C@@H](N)Cc1c[nH]cn1)[C@@H](C)O)C(=O)N[C@@H](CC(=O)O)C(=O)N[C@@H](CO)C(=O)N[C@@H](CCSC)C(=O)N[C@@H](Cc1ccccc1)C(=O)N[C@@H](CC(C)C)C(=O)O` [3102.0016] (H-HTKIDSMFL-OH), the IC50 against HLA A*3001 was found to be 1.5 nM. Still for that read-out and setting: as for `CC(C)C[C@H](NC(=O)[C@H](CO)NC(=O)[C@@H]1CCCN1C(=O)[C@@H]1CCCN1C(=O)[C@H](CO)NC(=O)[C@@H](NC(=O)[C@@H](N)CCCCN)C(C)C)C(=O)NCC(=O)N[C@@H](CCCCN)C(=O)O` [3102.0017] (H-KVSPPSLGK-OH), the figure is 1.1 nM.

As to `CC[C@H](C)[C@H](NC(=O)[C@H](C)NC(=O)[C@H](CC(C)C)NC(=O)[C@H](Cc1c[nH]cn1)NC(=O)[C@H](CCC(N)=O)NC(=O)[C@@H](N)Cc1c[nH]cn1)C(=O)N[C@@H](CCSC)C(=O)N[C@@H](Cc1ccccc1)C(=O)N[C@@H](CCCCN)C(=O)O` [3102.0020] (H-HQHLAIMFK-OH), inhibition at HLA A*3001 was half-maximal at 5 nM (IC50).

With `CSCC[C@H](NC(=O)[C@H](CO)NC(=O)[C@H](CCCNC(=N)N)NC(=O)[C@@H]1CCCN1C(=O)[C@H](Cc1ccccc1)NC(=O)[C@H](CCCCN)NC(=O)[C@H](CO)NC(=O)[C@@H](N)CCCCN)C(=O)N[C@@H](CC(C)C)C(=O)O` [3102.0022] (H-KSKFPRSML-OH), on HLA A*3001, the IC50 was found to be 31 nM.

On to `CC(C)C[C@H](NC(=O)[C@H](CO)NC(=O)[C@H](CO)NC(=O)[C@H](CCC(=O)O)NC(=O)[C@H](CCCCN)NC(=O)[C@H](CCCCN)NC(=O)[C@H](Cc1ccccc1)NC(=O)[C@@H](N)CCCNC(=N)N)C(=O)N[C@@H](C)C(=O)O` [3102.0023] (H-RFKKESSLA-OH), for which the IC50 on HLA A*3001 came to 0.31 nM. Still for that read-out and setting: as for `CSCC[C@H](N)C(=O)N[C@@H](CC(C)C)C(=O)N[C@@H](CCCNC(=N)N)C(=O)N[C@H](C(=O)N[C@H](C(=O)N[C@@H](Cc1ccc(O)cc1)C(=O)N[C@@H](CS)C(=O)N[C@@H](CC(N)=O)C(=O)N[C@@H](CCCCN)C(=O)O)C(C)C)[C@@H](C)O` [3102.0024] (H-MLRTVYCNK-OH), the figure is 0.26 nM.

As to `CC(C)[C@H](NC(=O)[C@H](CO)NC(=O)[C@H](CCCNC(=N)N)NC(=O)[C@H](CCCCN)NC(=O)[C@H](CO)NC(=O)[C@H](CC(N)=O)NC(=O)[C@H](CCCNC(=N)N)NC(=O)[C@H](CC(N)=O)NC(=O)[C@@H](N)CCCCN)C(=O)O` [3102.0025] (H-KNRNSKRSV-OH), the 50% inhibitory concentration (IC50) on HLA A*3001 was determined as 33 nM. Same read-out and setting: as for `CC[C@H](C)[C@H](NC(=O)[C@H](CC(N)=O)NC(=O)[C@@H]1CCCN1C(=O)[C@H](CCCNC(=N)N)NC(=O)[C@H](Cc1ccc(O)cc1)NC(=O)[C@@H](N)CC(C)C)C(=O)N1CCC[C@H]1C(=O)N[C@@H](CC(C)C)C(=O)N[C@@H](CCCCN)C(=O)O` [3102.0026] (H-LYRPNIPLK-OH), the figure is 3.5 nM. The same measure, in the same setting: under `CC[C@H](C)[C@H](NC(=O)[C@H](Cc1ccccc1)NC(=O)[C@H](CCCCN)NC(=O)CNC(=O)[C@H](CCC(N)=O)NC(=O)[C@H](CCCNC(=N)N)NC(=O)[C@@H](NC(=O)[C@@H](N)CCCNC(=N)N)[C@@H](C)CC)C(=O)N[C@@H](CCCCN)C(=O)O` [3102.0028] (H-RIRQGKFIK-OH) stands 4.8 nM; under `CC[C@H](C)[C@H](N)C(=O)N[C@H](C(=O)N[C@@H](CCCCN)C(=O)N[C@@H](CO)C(=O)N[C@@H](CO)C(=O)N[C@@H](Cc1ccc(O)cc1)C(=O)N[C@H](C(=O)N[C@@H](Cc1ccccc1)C(=O)N[C@@H](CCCCN)C(=O)O)C(C)C)[C@@H](C)CC` [3102.0029] (H-IIKSSYVFK-OH), 11 nM; under `CC(C)C[C@H](NC(=O)[C@H](Cc1ccccc1)NC(=O)[C@H](CC(N)=O)NC(=O)[C@H](Cc1ccccc1)NC(=O)[C@@H]1CCCN1C(=O)[C@H](C)NC(=O)[C@H](CC(C)C)NC(=O)[C@@H](NC(=O)[C@@H](N)CCCCN)[C@@H](C)O)C(=O)O` [3102.0030] (H-KTLAPFNFL-OH), 15 nM.

At HLA B*1503, `CC[C@H](C)[C@H](NC(=O)[C@H](CC(N)=O)NC(=O)[C@H](CCSC)NC(=O)[C@@H](NC(=O)[C@H](CCSC)NC(=O)[C@@H](N)CC(C)C)[C@@H](C)O)C(=O)N[C@H](C(=O)N[C@@H](CC(N)=O)C(=O)N[C@@H](Cc1ccccc1)C(=O)O)C(C)C` [3102.1344] (H-LMTMNIVNF-OH) gave a half-maximal inhibitory concentration (IC50) of 17 nM. This counts as double-digit nanomolar.
